# Measurements: US20140371165A1, “Identification of NSC23925 Isomers to Reverse Multidrug Resistance in Human Cancers” (priority 2012, published 2014)
# Where a name gives a salt, the structure may show the parent alone.
# How the values were obtained:
# MCF-7/MX = experiment: MTT reversal of BCRP-mediated MDR in MCF-7/MX; type: cell-based, human; settings: non-Pgp expressing drug resistant cell line
# Excerpt: A panel of parental cancer cell line and their daughter resistant cell lines, displaying MDR phenotype were used in this study. Human ovarian cancer cell line SKOV-3, breast cancer cell line MCF-7 and colon cancer cell line SW480, the osteosarcoma cell line U-2OS, KHOS, uterine sarcoma cell line MESSA and its doxorubicin selected drug resistant cell line MESSA/Dx5, non-small cell lung cancer cell line H-69 and its doxorubicin selected drug resistant cell line H-69AR (overexpress MRP1) were obtained from the ATCC (Rockville, Md.). Dr. Efstathios Gonos (Institute of Biological Research & Biotechnology, Athens, Greece) provided the doxorubicin resistant U-2OS R2 (referred in the text below as U-2OSDR), KHOS R2 cell lines. Dr. Erasmus Schneider (Wadsworth Center, Albany) provided the mitoxantrane resistant breast cancer MCF-7/MX (overexpress BCRP) cell line. […]
# To evaluate for reversal of Pgp-mediated MDR, SKOV-3TR, MCF-7adr and SW480TR cell lines were seeded into 96-well tissue culture plate at 2,000 cells per well with varying concentrations of chemotherapy drugs and NSC23925b for 6 days. […] Drug cytotoxicity was assessed in vitro using the MTT assay as previously described. Drugs at the concentrations utilized in the MTT assay were performed in the absence of cells to verify no change in absorbance. […]
# MCF-7adr [1] = experiment: MTT cytotoxicity assay and reversal of MDR in MCF-7adr; type: cell-based, human
# Excerpt: A panel of parental cancer cell line and their daughter resistant cell lines, displaying MDR phenotype were used in this study. Human ovarian cancer cell line SKOV-3, breast cancer cell line MCF-7 and colon cancer cell line SW480, the osteosarcoma cell line U-2OS, KHOS, uterine sarcoma cell line MESSA and its doxorubicin selected drug resistant cell line MESSA/Dx5, non-small cell lung cancer cell line H-69 and its doxorubicin selected drug resistant cell line H-69AR (overexpress MRP1) were obtained from the ATCC (Rockville, Md.). Dr. Efstathios Gonos (Institute of Biological Research & Biotechnology, Athens, Greece) provided the doxorubicin resistant U-2OS R2 (referred in the text below as U-2OSDR), KHOS R2 cell lines. Dr. Erasmus Schneider (Wadsworth Center, Albany) provided the mitoxantrane resistant breast cancer MCF-7/MX (overexpress BCRP) cell line. All the cell lines were cultured in RPMI 1640 (Invitrogen, Carlsbad, Calif.) supplemented with 10% fetal bovine serum, 100-units/ml penicillin and 100 μg/ml streptomycin (Invitrogen). Cells were incubated at 37° C. in 5% CO2-95% air atmosphere and passaged when near confluent monolayers were achieved using 2% trypsin-EDTA solution. […] The fresh chemotherapy drugs were obtained from the pharmacy at the Massachusetts General Hospital and stored at −20° C.
# To evaluate for reversal of Pgp-mediated MDR, SKOV-3TR, MCF-7adr and SW480TR cell lines were seeded into 96-well tissue culture plate at 2,000 cells per well with varying concentrations of chemotherapy drugs and NSC23925b for 6 days. Cell proliferation IC50 (concentration required for 50% inhibition) and MDR reversal IC50 were determined from dose-response curves carried out in triplicate in 96-well plate. Fold of reverse resistance for individual drugs were defined as the IC50 of MDR cells without NSC23925b treatment divided by the IC50 of MDR cells treated with NSC23925b. […] Drug cytotoxicity was assessed in vitro using the MTT assay as previously described. […] Response curves were fitted with use of GraphPad PRISM 4 software (GraphPad Software).
# MCF-7adr and SW480TR cells were treated with paclitaxel (FIGS. 2A-B), doxorubicin (FIGS. 2C-D) or mitoxantrane (FIGS. 2E-F) and NSC23925b in RPMI1640 complete media at the indicated concentrations. The relative sensitivity of each line to the indicated drugs was determined by MTT analysis 6 days post-treatment.
# MCF-7adr [2] = experiment: M30-Apoptosense ELISA apoptosis assay in MCF-7adr; type: cell-based, human; settings: NSC23925b 1 μM with doxorubicin 0.5 μM, 72 hours
# Description: Apoptosis was evaluated using the M30-Apoptosense ELISA assay kit (Peviva AB, Bromma, Sweden) according to the manufacturer's instructions. For the doxorubicin and NSC23925b treatment, MCF-7adr or SW480TR cells were seeded at 8,000 cells/per well in a 96-well plate for 24 hours before treatment. The cells were then treated with 0.5 μM of doxorubicin, 1 μM of NSC23925b, or a combination of the two drugs for an additional 72 hours. The cells were then lysed by an additional […] of 10% NP40 per well, following the manufacturer's instructions for apoptosis assay.
# The effect of NSC23925b on the doxorubicin induction of apoptosis was assessed in MCF-7adr or SW480TR. cell lines. Cells were treated with either doxorubicin (0.5 μM) alone, NSC23925b (1 μM) alone, or a combination of doxorubicin and NSC23925b for 72 hours. Apoptosis was scored using the M30-Apoptosense ELISA assay.
# [3] = Solubility in organic solvents; type: physicochemical
compound,measurement,setting,value
"COc1ccc(-c2cc([C@H](O)[C@H]3CCCCN3)c3ccccc3n2)cc1 [NSC23925b, (2-(4-methoxyphenyl)quinolin-4-yl)(piperidin-2-yl)methanol hydrochloride]",reversal of BCRP mediated drug resistance,MCF-7/MX,unable to reverse drug resistance
same,fold-reversal of drug resistance,"MCF-7adr [1]; Doxorubicin, NSC23925b 0.1 μM",1.4 fold
same,fold-reversal of drug resistance,"MCF-7adr [1]; Doxorubicin, NSC23925b 0.5 μM",4 fold
same,fold-reversal of drug resistance,"MCF-7adr [1]; Doxorubicin, NSC23925b 1 μM",15 fold
same,"reverse paclitaxel, doxorubicin, and mitoxantrane resistance",MCF-7adr [1]; MTT 6 days post-treatment,able to reverse
same,fold-reversal of drug resistance,"MCF-7adr [1]; Mitoxantrane, NSC23925b 0.1 μM",1.1 fold
same,fold-reversal of drug resistance,"MCF-7adr [1]; Mitoxantrane, NSC23925b 0.5 μM",3 fold
same,fold-reversal of drug resistance,"MCF-7adr [1]; Mitoxantrane, NSC23925b 1 μM",6 fold
same,fold-reversal of drug resistance,"MCF-7adr [1]; Paclitaxel, NSC23925b 0.1 μM",1.3 fold
same,fold-reversal of drug resistance,"MCF-7adr [1]; Paclitaxel, NSC23925b 0.5 μM",4 fold
same,fold-reversal of drug resistance,"MCF-7adr [1]; Paclitaxel, NSC23925b 1 μM",12 fold
same,"cell death / apoptosis, combination versus either drug alone",MCF-7adr [2],significantly greater cell death
same,solubility in other solvents,"[3]; either, ethyl acetate, chloroform, dichloromethane, acetone, tetrahydrofuran, cyclohexane, cyclopentane, hexanes, pentane",not soluble
same,solubility in methanol,[3]; methanol,soluble
same,5 milligram solubility in methanol,[3]; volume of methanol for 5 milligram,450 µL
